Here are results for two compounds from patent US7772255B2, “Method of treating tumors with azaxanthones” (Supratek Pharma, Inc., priority 2005, dated 2010).

Where a name gives a salt, the structure may show the parent alone. Read-outs that look alike come from different tables or passages of the source.

Holding throughout (type): in vivo, mouse
The nature of series [1]: Pharmacokinetics and bioavailability in normal mice. The settings on record: for AUC / Cmax / MRT / clearance / half-life / Vd / bioavailability: female; for Vd: read-out: Vss; for bioavailability: C57BL/6, plasma, po, mouse, sodium salt, read-out: Bioavailability for oral administration. The procedure: Female C57BL/6 mice were used at 6 to 7 weeks of age. The animals were given food (Purina mouse chow, Pro Lab PMH 4018, Trademark of Agway, Syracuse, N.Y., USA) and water ad libitum. The mice were kept at five per cage under light (12 h light/dark cycle) and temperature (22±1° C.) controlled environment. The animal studies were conducted according to the “Guidelines for Care and Use of Experimental Animals”.
Amlexanox sodium salt dosing solutions for oral administration were prepared by dissolving amlexanox sodium salt, prepared according to Example 10, in distilled water. amlexanox sodium salt dosing solutions for i.v. administration were prepared by dissolving amlexanox sodium salt, prepared according to Example 10, in isotonic solution (0.9% NaCl). Amlexanox meglumine formulation dosing solutions for oral administration were prepared by dissolving amlexanox meglumine formulation F1, prepared according to Example 12, in distilled water. Amlexanox meglumine formulation dosing solutions for i.v. administration were prepared by dissolving amlexanox meglumine formulation F1, prepared according to Example 13, in isotonic solution (0.9% NaCl). 1 mg/mL solution of amlexanox was used for dosing 10 mg/kg, and 10 mg/mL solution was used for dosing 100 mg/kg.
Amlexanox-X dosing solutions were administered i.v. and orally in normal mice (four animals per each time point). After various time intervals (15, 30 min and 1, 3, 6 and 8 h for Amlexanox-X Na salt and 15, 30 min, 1, 2 and 6 h for Amlexanox-X+MG) post-injection, blood and major organs (liver, kidney, lung and brain) were collected. Then, blood was immediately centrifuged, and plasma was separated. The plasma and tissue samples were immediately frozen in dry ice and stored at −80° C. until further use.
The defrosted plasma samples were centrifuged at 2000 g for 5 min, and aliquots (10 μL) of each sample were transferred into 1.5-ml plastic tubes. The samples were diluted with PBS in various amounts of times and aliquots of 100 μL were transferred into the other 1.5-ml plastic tubes. The samples were extracted with 1 mL of 100% acetonitrile for 10 min on 180° rotator. Then, the tubes were centrifuged at 10,000 g for 15 min.
The supernatant was separated to glass tubes and evaporated in a stream of nitrogen at […]. until dryness. The dried samples were kept at −20° C. until HPLC analysis. The samples were reconstituted in 100 μL of mobile phase analyze before analyze by HPLC.
The samples were analysed by HPLC using 250×4.6 mm, Phenomenex C18 Luna, 5 micron column, 1 mL/min flow rate of mobile phase 73% of 25 mM sodium phosphate pH 7.5 and 27% acetonitrile; fluorescent deyection λexcitation=348 nm, λemission=404 nm.
The concentrations of amlexanox in samples were determined by comparison with calibration curve obtained from spiked mouse plasma samples using the same analytical method. The areas under the curves (AUC) of amlexanox were calculated by trapezoidal method. Main pharmacokinetic parameters of amlexanox and bioavailability if amlexanox Na salt and amlexanox with meglumine formulation are shown in Tables below.

Series [2] has as its system CSML100 cells. Put plainly: S100A4-positive lung metastasis tumor model, alone or in combinations (Example 25). The note with it: CSML100 i.v. in A/J mice, 10 days, mean±SEM. The protocol:
Amlexanox solution for injections was prepared according to the Example 4. […] The animals were then divided randomly into 9 groups (n=9 except for control group): 1) intact control (n=13, saline); 2) Amlexanox (i.v. 100 mg/kg); 3) Amlexanox ([…]. 3 mg/kg); 5) Amlexanox ([…]. […] 10 mg/kg). […] The treatments were started on the day following the tumor cell implantation and continued for 10 consecutive days. […] The animal body weight was recorded as an index of treatment toxicity during the experiment. […] The data are expressed as mean±SEM for the number of metastatic sites on the lung surface.

Series [3] relates to B16F10/DX cells. Put plainly: B16 experimental metastasis model (Example 26). The settings on record: B16F10/DX i.v. in C57BL/6 mice; Amlexanox 100 mg/kg daily p.o.; mean±SEM. The protocol:
Amlexanox solution for injections was prepared according to the Example 4. B16F10/DX cell (2.0×10^5 cells per animal) were inoculated intravenously in female C57BL//6 mice (6-7 weeks old) and animals were then divided randomly into 4 groups (n=9 except for control group): 1) intact control (n=12, saline); 2) Amlexanox (100 mg/kg, daily p.o. administration); 3) TPT (2.0 mg/kg i.v. administration on day 1, 4, and 7); 5) Amlexanox (daily p.o. 100 mg/kg)+TPT (i.v. 2.0 mg/kg on day 1, 4, and 7). Intact control received oral administration with 10 ml/kg (volume/body weight) of saline, while Amlexanox was administrated orally and daily with a dose of 100 mg/kg in a volume of 10 ml/kg. The treatments were started from the day following the tumor cell implantation until the end of the protocol. However, TPT was administrated intravenously only on day 1, 4, and 7 after tumor implantation. The animal body weight was recorded as an index of treatment toxicity during the experiment.
The data in Table show metastasis formation in the lung in the mice implanted with B16F10/DX cells. The data are expressed as mean±SEM for the number of metastatic sites on the lung surface.

Where [4] appears, read: C57BL/6, iv, mouse plasma, i.v., 10 mg/kg.
Setting [5] is: C57BL/6, iv, mouse plasma, i.v., 100 mg/kg.
Where [6] appears, read: C57BL/6, mouse plasma, oral, 10 mg/kg.
[7] abbreviates: C57BL/6, mouse plasma, oral, 100 mg/kg.

Consider `CC(C)c1ccc2oc3nc(N)c(C(=O)O)cc3c(=O)c2c1` [Amlexanox (salt), 2-amino-7-isopropyl-1-azaxanthone-3-carboxylic acid sodium salt], for which, in series [1] (setting [4]), the area under the curve (AUC) worked out at 31.3 µg·h/mL, the Cmax turned out to be 55.7 µg/mL, the MRT amounted to 0.5 h and the clearance is 5 mL/min/kg. Further, in series [1] (setting [4]), the half-life was 0.4 h and the Vd is 0.2 L/kg. In series [1] (setting [5]), this compound had an AUC of 734 µg·h/mL, a Cmax of 590 µg/mL, an MRT of 1.2 h and a clearance of 0.167 mL/min/kg. In series [1] (setting [5]), the half-life was 0.8 h and the Vd was 0.02 L/kg. For the same compound, the bioavailability in series [1] (10 mg/kg) turned out to be 61.7%. In addition, the bioavailability in series [1] (100 mg/kg) is 41.1%. Besides, in series [1] (setting [6]), the AUC is 19.3 µg·h/mL, the Cmax was determined as 17.6 µg/mL, the MRT turned out to be 1.6 h and the half-life is 1.1 h. In series [1] (setting [7]), this compound had an AUC of 302 µg·h/mL, a Cmax of 206 µg/mL, an MRT of 2.2 h and a half-life of 1.5 h. Further, in series [1] (mouse plasma, oral, 10 mg/kg), the CL turned out to be 8.3 mL/min/kg and the Vss is given as 0.8 L/kg. Further, the Vss in series [1] (mouse plasma, oral, 100 mg/kg) is 0.07 L/kg.

Regarding `CC(C)c1ccc2oc3nc(N)c(C(=O)O)cc3c(=O)c2c1` [Amlexanox, 2-amino-7-isopropyl-1-azaxanthone-3-carboxylic acid], the entries for the “Lung Metastasis Number per Animal” value in series [2] (Amlexanox i.v. 100 mg/kg daily), in series [2] (Amlexanox p.o. 200 mg/kg daily) and in series [3] were 29.6 ± 3.89, 26.2 ± 4.16 and 71.3 ± 15.5, respectively.
